According to ChEMBL document CHEMBL1156624, “A click chemistry approach to pleuromutilin conjugates with nucleosides or acyclic nucleoside derivatives and their binding to the bacterial ribosome” (J Med Chem, 2008):

Assays:
[1] = system: Escherichia coli; experiment: Binding affinity to Escherichia coli MRE600 ribosome assessed as protection against N1-cyclohexyl-N3-(2-morpholino)ethylcarbodiimide p-toluenesulfonate-induced modifications at nucleotide U2585 in peptidyl transferase center of 23S rRNA at 5 uM by chemical footprinting relative to control
[2] = system: Escherichia coli; experiment: Binding affinity to Escherichia coli MRE600 ribosome assessed as protection against N1-cyclohexyl-N3-(2-morpholino)ethylcarbodiimide p-toluenesulfonate-induced modifications at nucleotide U2506 in peptidyl transferase center of 23S rRNA at 50 uM by chemical footprinting relative to control
[3] = system: Escherichia coli; experiment: Binding affinity to Escherichia coli MRE600 ribosome assessed as protection against N1-cyclohexyl-N3-(2-morpholino)ethylcarbodiimide p-toluenesulfonate-induced modifications at nucleotide U2506 in peptidyl transferase center of 23S rRNA at 5 uM by chemical footprinting relative to control
[4] = system: Escherichia coli; experiment: Binding affinity to Escherichia coli MRE600 ribosome assessed as protection against N1-cyclohexyl-N3-(2-morpholino)ethylcarbodiimide p-toluenesulfonate-induced modifications at nucleotide U2585 in peptidyl transferase center of 23S rRNA at 50 uM by chemical footprinting relative to control

Row | Structure (SMILES) | Activity [1] | Activity [2] | Activity [3] | Activity [4]
1 | C=C[C@]1(C)C[C@@H](OC(=O)Cn2cc(Cn3ccc(N)nc3=O)nn2)[C@]2(C)[C@H](C)CC[C@]3(CCC(=O)[C@@H]32)[C@@H](C)[C@@H]1O | 0.69 | 0.16 | 0.61 | 0.38
2 | C=C[C@]1(C)C[C@@H](OC(=O)Cn2cc(Cc3ccccc3)nn2)[C@]2(C)[C@H](C)CC[C@]3(CCC(=O)[C@@H]32)[C@@H](C)[C@@H]1O | 0.54 | 0.06 | 0.31 | 0.29
3 | C=C[C@]1(C)C[C@@H](OC(=O)Cn2cc(Cn3cnc4c(N)ncnc43)nn2)[C@]2(C)[C@H](C)CC[C@]3(CCC(=O)[C@@H]32)[C@@H](C)[C@@H]1O | 0.73 | 0.19 | 0.73 | 0.37
4 | C=C[C@]1(C)C[C@@H](OC(=O)Cn2cc(CCCn3ccc(N)nc3=O)nn2)[C@]2(C)[C@H](C)CC[C@]3(CCC(=O)[C@@H]32)[C@@H](C)[C@@H]1O | 0.56 | 0.05 | 0.27 | 0.26
5 | C=C[C@]1(C)C[C@@H](OC(=O)Cn2cc(CCCc3ccccc3)nn2)[C@]2(C)[C@H](C)CC[C@]3(CCC(=O)[C@@H]32)[C@@H](C)[C@@H]1O | 0.48 | 0.08 | 0.21 | 0.41
6 | C=C[C@]1(C)C[C@@H](OC(=O)CSCCN(CC)CC)[C@]2(C)[C@H](C)CC[C@]3(CCC(=O)[C@H]32)[C@@H](C)[C@@H]1O | 0.59 | 0.05 | 0.1 | 0.58
7 | C=C[C@]1(C)C[C@@H](OC(=O)Cn2cc([C@]3(O)[C@H](O)[C@@H](CO)O[C@H]3n3ccc(=O)[nH]c3=O)nn2)[C@]2(C)[C@H](C)CC[C@]3(CCC(=O)[C@@H]32)[C@@H](C)[C@@H]1O | 0.74 | 0.18 | 0.61 | 0.35
8 | C=C[C@]1(C)C[C@@H](OC(=O)CO)[C@]2(C)[C@H](C)CC[C@]3(CCC(=O)[C@@H]32)[C@@H](C)[C@@H]1O | 0.99 | 0.1 | 0.42 | 0.98
9 | C=C[C@]1(C)C[C@@H](OC(=O)Cn2cc(CCc3ccccc3)nn2)[C@]2(C)[C@H](C)CC[C@]3(CCC(=O)[C@@H]32)[C@@H](C)[C@@H]1O | 0.61 | 0.05 | 0.29 | 0.35
10 | C=C[C@]1(C)C[C@@H](OC(=O)Cn2cc(CCCn3cc(C)c(=O)[nH]c3=O)nn2)[C@]2(C)[C@H](C)CC[C@]3(CCC(=O)[C@@H]32)[C@@H](C)[C@@H]1O | 0.46 | 0.08 | 0.41 | 0.24
11 | C=C[C@]1(C)C[C@@H](OC(=O)Cn2cc(CO[C@@H]3[C@H](O)[C@@H](CO)O[C@H]3n3ccc(=O)[nH]c3=O)nn2)[C@]2(C)[C@H](C)CC[C@]3(CCC(=O)[C@@H]32)[C@@H](C)[C@@H]1O | 0.72 | 0.14 | 0.54 | 0.29
12 | C=C[C@]1(C)C[C@@H](OC(=O)Cn2cc([C@]3(O)[C@@H](CO)O[C@@H](n4ccc(=O)[nH]c4=O)[C@@H]3O)nn2)[C@]2(C)[C@H](C)CC[C@]3(CCC(=O)[C@@H]32)[C@@H](C)[C@@H]1O | 0.45 | 0.03 | 0.24 | 0.18
13 | C=C[C@]1(C)C[C@@H](OC(=O)Cn2cc(CCCn3cnc4c(N)ncnc43)nn2)[C@]2(C)[C@H](C)CC[C@]3(CCC(=O)[C@@H]32)[C@@H](C)[C@@H]1O | 0.33 | 0.06 | 0.17 | 0.22
14 | C=C[C@]1(C)C[C@@H](OC(=O)Cn2cc(CCn3cnc4c(N)ncnc43)nn2)[C@]2(C)[C@H](C)CC[C@]3(CCC(=O)[C@@H]32)[C@@H](C)[C@@H]1O | 0.4 | 0.1 | 0.37 | 0.26

Next, values leading:

Row | Activity [1] | Activity [2] | Activity [3] | Activity [4] | Structure (SMILES)
15 | 0.73 | 0.12 | 0.44 | 0.41 | C=C[C@]1(C)C[C@@H](OC(=O)Cn2cc(CO[C@@H]3C[C@@H](n4cc(C)c(=O)[nH]c4=O)O[C@H]3CO)nn2)[C@]2(C)[C@H](C)CC[C@]3(CCC(=O)[C@@H]32)[C@@H](C)[C@@H]1O
16 | 0.93 | 0.19 | 0.62 | 0.36 | C=C[C@]1(C)C[C@@H](OC(=O)Cn2cc(COC[C@H]3O[C@@H](n4cc(C)c(=O)[nH]c4=O)C[C@@H]3O)nn2)[C@]2(C)[C@H](C)CC[C@]3(CCC(=O)[C@@H]32)[C@@H](C)[C@@H]1O
17 | 0.57 | 0.1 | 0.53 | 0.36 | C=C[C@]1(C)C[C@@H](OC(=O)Cn2cc(CCn3cc(C)c(=O)[nH]c3=O)nn2)[C@]2(C)[C@H](C)CC[C@]3(CCC(=O)[C@@H]32)[C@@H](C)[C@@H]1O
18 | 0.5 | 0.1 | 0.38 | 0.25 | C=C[C@]1(C)C[C@@H](OC(=O)Cn2cc([C@@H](O)[C@@H]3O[C@H](n4cc(C)c(=O)[nH]c4=O)C[C@H]3O)nn2)[C@]2(C)[C@H](C)CC[C@]3(CCC(=O)[C@@H]32)[C@@H](C)[C@@H]1O (mixture of isomers)
19 | 0.75 | 0.18 | 0.69 | 0.37 | C=C[C@]1(C)C[C@@H](OC(=O)Cn2cc(Cn3cc(C)c(=O)[nH]c3=O)nn2)[C@]2(C)[C@H](C)CC[C@]3(CCC(=O)[C@@H]32)[C@@H](C)[C@@H]1O
20 | 0.59 | 0.09 | 0.32 | 0.29 | C=C[C@]1(C)C[C@@H](OC(=O)Cn2cc(C[C@@H](O)[C@@H]3O[C@H](n4cc(C)c(=O)[nH]c4=O)C[C@H]3O)nn2)[C@]2(C)[C@H](C)CC[C@]3(CCC(=O)[C@@H]32)[C@@H](C)[C@@H]1O
21 | 0.69 | 0.09 | 0.33 | 0.35 | C=C[C@]1(C)C[C@@H](OC(=O)Cn2cc(C[C@H](O)[C@@H]3O[C@H](n4cc(C)c(=O)[nH]c4=O)C[C@H]3O)nn2)[C@]2(C)[C@H](C)CC[C@]3(CCC(=O)[C@@H]32)[C@@H](C)[C@@H]1O
